Measurements published in patent US20260234157A1, “COMPOUND AND METHOD FOR TARGETED DEGRADATION OF ANDROGEN RECEPTOR” (Gan & Lee Pharmaceuticals Co., Ltd., priority 2023, published 2026).
Residue numbers refer to the chain shown, from its start.

Assays:
Assay type in all cases: cell-based
AR protein [1] = target: T1, AR protein (Homo sapiens, UniProt P10275); test: Degradation of AR protein in VCaP cells (Western blot); conditions: 8 hours; for inhibition at 0.01 µM: compound at 10 nM, read-out: Degradation rate of the AR protein in VCaP cells, 10 nM (%); for inhibition at 0.1 µM: compound at 100 nM, read-out: Degradation rate of the AR protein in VCaP cells, 100 nM (%)
T1 construct: degradation activity of the compounds disclosed in the present disclosure on AR protein in VCaP cells; host or cells: VCaP
T1 sequence (P10275 1-920): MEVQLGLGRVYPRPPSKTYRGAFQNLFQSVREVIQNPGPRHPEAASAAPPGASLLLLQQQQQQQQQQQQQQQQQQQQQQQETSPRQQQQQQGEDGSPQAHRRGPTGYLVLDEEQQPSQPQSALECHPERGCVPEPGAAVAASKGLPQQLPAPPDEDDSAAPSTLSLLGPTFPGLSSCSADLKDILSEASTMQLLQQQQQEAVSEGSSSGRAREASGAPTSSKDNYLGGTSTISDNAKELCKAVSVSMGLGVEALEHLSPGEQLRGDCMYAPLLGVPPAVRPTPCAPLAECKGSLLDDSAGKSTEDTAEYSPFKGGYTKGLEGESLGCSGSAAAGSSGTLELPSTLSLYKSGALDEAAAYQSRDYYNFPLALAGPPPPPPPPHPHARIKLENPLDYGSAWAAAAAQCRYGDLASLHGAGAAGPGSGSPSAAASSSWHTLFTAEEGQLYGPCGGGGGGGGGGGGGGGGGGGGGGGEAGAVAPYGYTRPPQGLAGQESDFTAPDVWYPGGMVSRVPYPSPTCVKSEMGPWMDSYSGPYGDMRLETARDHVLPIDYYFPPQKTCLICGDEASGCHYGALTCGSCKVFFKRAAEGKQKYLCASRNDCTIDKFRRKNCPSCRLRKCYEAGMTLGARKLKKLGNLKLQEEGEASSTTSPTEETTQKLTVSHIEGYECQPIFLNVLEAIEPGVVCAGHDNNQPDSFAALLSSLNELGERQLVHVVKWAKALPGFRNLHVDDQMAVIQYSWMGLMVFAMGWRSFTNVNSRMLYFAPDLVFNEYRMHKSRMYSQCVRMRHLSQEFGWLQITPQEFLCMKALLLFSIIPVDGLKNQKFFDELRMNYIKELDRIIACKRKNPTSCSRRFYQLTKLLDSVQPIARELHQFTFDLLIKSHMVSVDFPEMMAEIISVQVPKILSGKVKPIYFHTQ
In short: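 Western blot readout: AR band grayscale normalised to GAPDH, used to derive degradation rate. Lysates came from VCaP cells exposed to compound for 8 h, with solvent controls run in parallel.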

VCaP cells = test: Inhibition of proliferation of VCaP cells (WST-8); conditions: Homo sapiens; VCaP cells, 168 hours, WST-8 absorbance at 450 nm; read-out: IC50 for inhibiting the proliferation of VCaP cells
In short: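 Proliferation was read by WST-8 on day nine. Cells were VCaP FGC, seeded at 15000 cells per well in 10% FBS DMEM and kept at 37° C with 5% CO2.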

AR protein [2] = target: T2, AR protein (Homo sapiens, UniProt P10275, T878A); test: Degradation of AR protein in LNCaP cells (Western blot); conditions: LNCaP cells, 8 hours, Western blot grayscale, GAPDH internal reference; for inhibition at 0.01 µM: compound 10 nM, read-out: Degradation rates of the AR protein in LNCaP cells, 10 nM (%); for inhibition at 0.1 µM: compound 100 nM, read-out: Degradation rates of the AR protein in LNCaP cells, 100 nM (%)
T2 construct: degradation activity of the compounds disclosed in the present disclosure on AR protein in LNCaP cells; host or cells: LNCaP FGC
T2 sequence (P10275 1-920 T878A): T1 sequence (P10275 1-920) with T878A
In short: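 Percent AR degradation was derived from GAPDH-normalised Western blot band intensities (infrared detection) in LNCaP lysates.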

LNCaP FGC cells = test: Inhibition of proliferation of LNCaP cells (WST-8); conditions: Homo sapiens, LNCaP, 96 h, LNCaP FGC cells, 96 hours, WST-8 absorbance at 450 nm; read-out: IC50 for inhibiting the proliferation of LNCaP cells
Experimental: The cells were cultured in a cell culture incubator with 5% CO2 at 37° C. overnight. […] On the sixth day, 96 well plates were taken out, and 20 μL of WST-8 (Beytime, C0040) reagent was added to each well.

N#Cc1ccc(O[C@H]2CC[C@H](NC(=O)c3ccc(N4CCN(CC(=O)N5CCC6(CC5)COc5c6ccc6c5CN(C5CCC(=O)NC5=O)C6=O)CC4)nn3)CC2)cc1Cl (stereo partly drawn) [Compound 241]
inhibition at 0.01 µM (AR protein [1]): 29%
inhibition at 0.1 µM (AR protein [1]): 77%
IC50 (VCaP cells): 8.5 nM
inhibition at 0.01 µM (AR protein [2]): 50%
inhibition at 0.1 µM (AR protein [2]): 63%
IC50 (LNCaP FGC cells): 68600 nM

CCOC1(CN2CCC3(CC2)COc2c3ccc3c2C(=O)N(C2CCC(=O)NC2=O)C3=O)CCN(c2ccc(C(=O)N[C@H]3CC[C@H](Oc4ccc(C#N)c(C(F)(F)F)c4)CC3)nn2)CC1 (stereo partly drawn) [Compound 242]
inhibition at 0.01 µM (AR protein [1]): -5%
inhibition at 0.1 µM (AR protein [1]): 15%
IC50 (VCaP cells): 94 nM
inhibition at 0.01 µM (AR protein [2]): -18%
inhibition at 0.1 µM (AR protein [2]): 11%
IC50 (LNCaP FGC cells): 640 nM

CCOC1(CN2CCC3(CC2)COc2c3ccc3c2C(=O)N(C2CCC(=O)NC2=O)C3=O)CCN(c2ccc(C(=O)N[C@H]3CC[C@H](Oc4ccc(C#N)c(OC)c4)CC3)nn2)CC1 (stereo partly drawn) [Compound 243]
inhibition at 0.01 µM (AR protein [1]): 16%
inhibition at 0.1 µM (AR protein [1]): 68%
IC50 (VCaP cells): 18 nM
inhibition at 0.01 µM (AR protein [2]): 24%
inhibition at 0.1 µM (AR protein [2]): 58%
IC50 (LNCaP FGC cells): 120 nM

CCOC1(CN2CCC3(CC2)COc2c3ccc3c2C(=O)N(C2CCC(=O)NC2=O)C3=O)CCN(c2ccc(C(=O)N[C@H]3CC[C@H](Oc4ccc(C#N)c(Cl)c4)CC3)nn2)CC1 (stereo partly drawn) [Compound 244]
inhibition at 0.01 µM (AR protein [1]): 3%
inhibition at 0.1 µM (AR protein [1]): 56%
IC50 (VCaP cells): 68 nM
inhibition at 0.01 µM (AR protein [2]): -5%
inhibition at 0.1 µM (AR protein [2]): 65%
IC50 (LNCaP FGC cells): 170 nM

CC1(CN2CCC3(CC2)COc2c3ccc3c2C(=O)N(C2CCC(=O)NC2=O)C3=O)CCN(c2ncc(C(=O)NC3CCC(Oc4ccc(C#N)c(Cl)c4)CC3)cn2)CC1 (stereo not drawn) [Compound 245]
inhibition at 0.01 µM (AR protein [1]): 3%
inhibition at 0.1 µM (AR protein [1]): 43%
IC50 (VCaP cells): 100 nM
inhibition at 0.01 µM (AR protein [2]): 2%
inhibition at 0.1 µM (AR protein [2]): 45%
IC50 (LNCaP FGC cells): 1820 nM

COc1cc(OC2CCC(NC(=O)c3cnc(N4CCC(C)(CN5CCC6(CC5)COc5c6ccc6c5C(=O)N(C5CCC(=O)NC5=O)C6=O)CC4)nc3)CC2)ccc1C#N (stereo not drawn) [Compound 246]
inhibition at 0.01 µM (AR protein [1]): -19%
inhibition at 0.1 µM (AR protein [1]): 61%
IC50 (VCaP cells): 120 nM
inhibition at 0.01 µM (AR protein [2]): 17%
inhibition at 0.1 µM (AR protein [2]): 43%
IC50 (LNCaP FGC cells): 870 nM

CCC1(CN2CCC3(CC2)COc2c3ccc3c2C(=O)N(C2CCC(=O)NC2=O)C3=O)CCN(c2ccc(C(=O)N[C@H]3CC[C@H](Oc4ccc(C#N)c(C(F)(F)F)c4)CC3)nn2)CC1 (stereo partly drawn) [Compound 248]
inhibition at 0.01 µM (AR protein [1]): 2%
inhibition at 0.1 µM (AR protein [1]): 17%
IC50 (VCaP cells): 210 nM
inhibition at 0.01 µM (AR protein [2]): -53%
inhibition at 0.1 µM (AR protein [2]): -16%
IC50 (LNCaP FGC cells): 5990 nM

CCC1(CN2CCC3(CC2)COc2c3ccc3c2C(=O)N(C2CCC(=O)NC2=O)C3=O)CCN(c2ccc(C(=O)N[C@H]3CC[C@H](Oc4ccc(C#N)c(Cl)c4)CC3)nn2)CC1 (stereo partly drawn) [Compound 249]
inhibition at 0.01 µM (AR protein [1]): -21%
inhibition at 0.1 µM (AR protein [1]): 56%
IC50 (VCaP cells): 220 nM
inhibition at 0.01 µM (AR protein [2]): -5%
inhibition at 0.1 µM (AR protein [2]): 51%
IC50 (LNCaP FGC cells): 12100 nM

CCC1(CN2CCC3(CC2)COc2c3ccc3c2C(=O)N(C2CCC(=O)NC2=O)C3=O)CCN(c2ccc(C(=O)N[C@H]3CC[C@H](Oc4ccc(C#N)c(OC)c4)CC3)nn2)CC1 (stereo partly drawn) [Compound 250]
inhibition at 0.01 µM (AR protein [1]): 15%
inhibition at 0.1 µM (AR protein [1]): 61%
IC50 (VCaP cells): 160 nM
inhibition at 0.01 µM (AR protein [2]): -14%
inhibition at 0.1 µM (AR protein [2]): 67%
IC50 (LNCaP FGC cells): > 90000 nM

COc1cc(O[C@H]2CC[C@H](NC(=O)c3ccc(N4CC(CN5CCC6(CC5)COc5c6ccc6c5C(=O)N(C5CCC(=O)NC5=O)C6=O)C4)nn3)CC2)ccc1C#N (stereo partly drawn) [Compound 251]
inhibition at 0.01 µM (AR protein [1]): 48%
inhibition at 0.1 µM (AR protein [1]): 73%
IC50 (VCaP cells): 270 nM
inhibition at 0.01 µM (AR protein [2]): 45%
inhibition at 0.1 µM (AR protein [2]): 37%
IC50 (LNCaP FGC cells): 150 nM

N#Cc1ccc(O[C@H]2CC[C@H](NC(=O)c3ccc(N4CCC5(CC4)CC(C(=O)N4CCC6(CC4)COc4c6ccc6c4CN(C4CCC(=O)NC4=O)C6=O)C5)nn3)CC2)cc1Cl (stereo partly drawn) [Compound 254]
inhibition at 0.01 µM (AR protein [1]): 56%
inhibition at 0.1 µM (AR protein [1]): 85%
IC50 (VCaP cells): 2.5 nM
inhibition at 0.01 µM (AR protein [2]): 53%
inhibition at 0.1 µM (AR protein [2]): 45%
IC50 (LNCaP FGC cells): 49100 nM

N#Cc1ccc(O[C@H]2CC[C@H](NC(=O)c3ccc(N4CC5(CCC(C(=O)N6CCC7(CC6)COc6c7ccc7c6CN(C6CCC(=O)NC6=O)C7=O)CC5)C4)nn3)CC2)cc1Cl (stereo partly drawn) [Compound 255]
inhibition at 0.01 µM (AR protein [1]): 63%
inhibition at 0.1 µM (AR protein [1]): 82%
IC50 (VCaP cells): 11 nM
inhibition at 0.01 µM (AR protein [2]): 55%
inhibition at 0.1 µM (AR protein [2]): 44%
IC50 (LNCaP FGC cells): 50200 nM

N#Cc1ccc(O[C@H]2CC[C@H](NC(=O)c3ccc(N4CC5(CC(C(=O)N6CCC7(CC6)COc6c7ccc7c6CN(C6CCC(=O)NC6=O)C7=O)C5)C4)nn3)CC2)cc1Cl (stereo partly drawn) [Compound 256]
inhibition at 0.01 µM (AR protein [1]): 48%
inhibition at 0.1 µM (AR protein [1]): 81%
IC50 (VCaP cells): 7.5 nM
inhibition at 0.01 µM (AR protein [2]): 47%
inhibition at 0.1 µM (AR protein [2]): 36%
IC50 (LNCaP FGC cells): 56000 nM

N#Cc1ccc(O[C@H]2CC[C@H](NC(=O)c3ccc(N4CCC(CO)(CN5CCC6(CC5)COc5c6ccc6c5CN(C5CCC(=O)NC5=O)C6=O)CC4)nn3)CC2)cc1Cl (stereo partly drawn) [Compound 257]
inhibition at 0.01 µM (AR protein [1]): 67%
inhibition at 0.1 µM (AR protein [1]): 75%
IC50 (VCaP cells): 1.5 nM
inhibition at 0.01 µM (AR protein [2]): 36%
inhibition at 0.1 µM (AR protein [2]): -41%
IC50 (LNCaP FGC cells): 14 nM

CC1(CN2CCC3(CC2)COc2c3ccc3c2CN(C2CCC(=O)NC2=O)C3=O)CCN(c2ccc(C(=O)N[C@H]3CC[C@H](Oc4ccc(C#N)c(Cl)c4)CC3)nc2)CC1 (stereo partly drawn) [Compound 259]
inhibition at 0.01 µM (AR protein [1]): 33%
inhibition at 0.1 µM (AR protein [1]): 78%
IC50 (VCaP cells): 1.2 nM
inhibition at 0.01 µM (AR protein [2]): -16%
inhibition at 0.1 µM (AR protein [2]): 44%
IC50 (LNCaP FGC cells): 73 nM

N#Cc1ccc(O[C@H]2CC[C@H](NC(=O)c3ccc(N4CCC(F)(CN5CCC6(CC5)COc5c6ccc6c5CN(C5CCC(=O)NC5=O)C6=O)CC4)cn3)CC2)cc1Cl (stereo partly drawn) [Compound 260]
inhibition at 0.01 µM (AR protein [1]): 15%
inhibition at 0.1 µM (AR protein [1]): 74%
IC50 (VCaP cells): 1 nM
inhibition at 0.01 µM (AR protein [2]): 13%
inhibition at 0.1 µM (AR protein [2]): 9%
IC50 (LNCaP FGC cells): 4 nM
